The values below come from the NIST ThermoML archive (doi:10.1021/je5005559).

± gives the expanded uncertainty stated by the source.

For series [1] the following is noted: for mass density: 298.15 K, 101.33 kPa.
The nature of series [2]: refractive index (Na D-line) (dimensionless). Conditions: 298.15 K; 101.33 kPa; Liquid; Standard Abbe refractometry.
A short description of series [3]: Boiling temperature at pressure P. Conditions: 101 kPa; Liquid; Distillation.

For `Oc1ccccc1O` [1,2-benzenediol], the mass density in series [1] (Crystal, Pycnometric method) amounted to 1346 ± 3 kg/m3. Moreover, the Normal melting temperature in series [1] (Crystal, visual observation) amounted to 105.70 ± 1.1 °C.
In the case of `CC(=O)CC(C)C` [4-methylpentan-2-one], the mass density in series [1] (Liquid, Vibrating tube method) is reported as 799 ± 2 kg/m3. Besides, the refractive index in series [2] came to 1.3965 ± 0.0008. Further, the “Boiling temperature at pressure P” value in series [3] turned out to be 116.60 ± 0.2 °C.
